This assay deals with anthracnose on bentgrass. The assay can be described thus: Evaluation of fungicides for control of anthracnose on bentgrass putting greens (field test). The assay is classed as in vivo, Colletotrichum graminicola. An excerpt: The test was established on the 16th green at the Fianna Hills Country Club in Fort Smith, Ark. The green is more than 20 years old and was maintained at 0.156-inch mowing height and with other standard practices used at Fianna Hills. The design was a randomized complete block with 20 treatments and four replications. Individual plots were 4 feet×5 feet and isolated with a spray shield during applications. Treatments were applied on approximate 14- or 28-day schedules. Actual dates of applications were 31 May, 13 Jun., 27 Jun., 12 Jul., 26 Jul., and 9 Aug., all in 2002. Treatments were applied at 4 gal/1000 sq ft using a hand-held CO2-powered sprayer at 20 psi with a TeeJet 8004VS spray tip. The amount of active ingredient per 1000 square feet for each fungicide is provided in Table I. The C3 biocontrol is a strain of Lysobacter enzymogenes that was supplied by Dr. Gary Yuen from the University of Nebraska. The MX 567 active ingredient was first dissolved in acetone and then diluted with water. Treatments were evaluated by recording disease incidence, disease intensity, and turf quality.

Setting [1] is: 2 Aug, 2.5 g ai + .05% Tween per 1000 sq ft, days 0, 13, 27, 42, 56, 70.
Setting [2] is: 19 Aug, 2.5 g ai + .05% Tween per 1000 sq ft, days 0, 13, 27, 42, 56, 70.

Entries after “also recorded” stand apart in the source; their conditions may differ.

For `C[C@H](COc1cc(F)ccc1F)NC(=O)C(C#N)C(C)(C)C` (stereo in doubt) [MX 567, rel-2-cyano-N-[(1R)-2-(2,5-difluorophenoxy)-1-methylethyl]-3,3-dimethylbutanamide], under setting [1], the “Incidence (%) of plot area with anthracnose symptoms” value (shortened to “Incidence (%) of plot area”) is given as 23%, the “Intensity (0 = no disease to 4 = dead)” value came to 1.0 and the “Severity (incidence × intensity)” value was found to be 23. In addition, the “Incidence (%) of plot area” value (16 Jul, 2.5 g ai + .05% Tween per 1000 sq ft, days 0, 13, 27, 42, 56, 70) stood at 21%. For the same compound, under setting [2], the “Incidence (%) of plot area” value is 29%; the “Intensity (0 = no disease to 4 = dead)” value is given as 1.0; the “Severity (incidence × intensity)” value is recorded as 29; the “Turf quality (0-9 rating scale: 0 = all dead, 9 = excellent)” value came out at 6.3. The “Incidence (%) of plot area” value (26 Jul, 2.5 g ai + .05% Tween per 1000 sq ft, days 0, 13, 27, 42, 56, 70) worked out at 2%. Besides, the “turf quality, in words” value (summary of Table I) is “increases in turf quality; also recorded: highest turf quality”. The “disease severity, in words” value (summary of Table I versus nontreated checks) is listed as “significant reductions in disease severity”.

These data come from patent US20040132811A1, “Methods and products for inhibiting growth of fungal pathogens on turfgrass” (priority 2003, published 2004).
